ChEMBL document CHEMBL1201862, “PubChem BioAssay data set” (2004)
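Step 1: Grow cells in 96-well plates. Step 2: Expose to compound for 48 hours at 5 concentrations. Step 3: Interpolate endpoints linearly; if unreached, use highest concentration. The concentration for 50% growth inhibition is given as GI50.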 Active and inactive are the calls of the source. Cut-off read from the data, not from the text of the source: active = GI50 up to about 1.1 µM and inactive = higher.

What was measured:
Experiment in all cases: NCI tumour cell line growth inhibition, 48 h
COLO 205 = test system: COLO 205
LOX IMVI = test system: LOX IMVI
A498 = test system: A498
SF-295 = test system: SF-295
OVCAR-4 = test system: OVCAR-4
SF-268 = test system: SF-268
HCT-15 = test system: HCT-15
SN12C = test system: SN12C
A549 = test system: A549
MCF7 = test system: MCF7
PC-3 = test system: PC-3
SNB-19 = test system: SNB-19
RXF 393 = test system: RXF 393
UACC-62 = test system: UACC-62
786-0 = test system: 786-0
UO-31 = test system: UO-31
NCI-H460 = test system: NCI-H460
RPMI-8226 = test system: RPMI-8226
MOLT-4 = test system: MOLT-4
NCI-H226 = test system: NCI-H226

SMILES: C[C@H]1COC2=C1C(=O)C(=O)c1c2ccc2c1CCCC2(C)C [CRYPTOTANSHINONE]
- GI50 (COLO 205): 1150 nM (inactive)
- GI50 (LOX IMVI): 2520 nM (inactive)
- GI50 (A498): 18300 nM (inactive)
- GI50 (SF-295): 1680 nM (inactive)
- GI50 (OVCAR-4): 12200 nM (inactive)
- GI50 (SF-268): 1900 nM (inactive)
- GI50 (HCT-15): 1940 nM
- GI50 (SN12C): 4370 nM (inactive)
- GI50 (A549): 1050 nM (active)
- GI50 (MCF7): 2220 nM (inactive)
- GI50 (PC-3): 4930 nM (inactive)
- GI50 (SNB-19): 2520 nM (inactive)
- GI50 (RXF 393): 6300 nM (inactive)
- GI50 (UACC-62): 2030 nM (inactive)
- GI50 (786-0): 3420 nM (inactive)
- GI50 (UO-31): 4700 nM (inactive)
- GI50 (NCI-H460): 1630 nM (inactive)
- GI50 (RPMI-8226): 3310 nM (inactive)
- GI50 (MOLT-4): 4240 nM (inactive)
- GI50 (NCI-H226): 3240 nM (inactive)
